Columns and labels:
QSOX-1b = assay: QSOX1-b protein abundance by Western blotting in MDA-MB-231 cells; format: cell-based, human
Description: (§1) Measuring Protein Abundance by Western Blotting. MDA-MB-231 cells were seeded in 6-well plates at ˜50% confluency and treated with vehicle (DMSO) or compound as described above but without EU treatment. After 16 h, the compound-containing growth medium was removed and replaced with fresh medium containing compound (re-dosing). After an additional 32 h incubation, total protein was harvested (48 h total treatment time). The cells were then washed twice with cold 1×DPBS, and total protein was harvested by using Mammalian Protein Extraction Reagent (M-PER, Thermo Scientific) per the manufacturer's protocol. Protein concentration was quantified by using BCA Protein Assay Kit (Pierce), and the proteins were separated by using 10% SDS-polyacrylamide gel (20 μg protein per lane). After gel electrophoresis in 1× Running Buffer (50 mM MOPS, 50 mM Tris-base, pH 7.5, 1 mM EDTA, and 0.1% (w/v) SDS) at 120 V for 1 h, the proteins were transferred to a PVDF membrane (0.45 μm, Cytiva) at 300 mA for 1 h in 1× Transfer Buffer (25 mM Bicine, 25 mM Tris-base, pH 7.5, 1:4 MeOH:H2O). The membrane was blocked with 5% (w/v) non-fat dry milk in TBST (1×TBS containing 0.1% (v/v) Tween-20) for 1 h at room temperature. […] Expression levels of proteins were quantified based on band intensity by using ImageJ. […]

SQSTM1 protein = SQSTM1 protein abundance by Western blotting in MDA-MB-231 cells; format: cell-based, human; details: F1-Amide 20 μM, F1-RIBOTAC 10 μM, 48 h
Description: as §1

[1] = target: QSOX1 5′UTR hairpin (model of the QSOX1-a binding site); assay: In vitro binding by fluorescence polarization, Cy5-labeled WT RNA; parameters: species or system human
Description: (§2) In Vitro Binding by Measuring Changes in Fluorescence Polarization. Cy5-labeled RNA was folded by heating at 95° C. for 2 min in 1× Folding Buffer and cooled on ice. Serial dilutions of F1 (200 to 0.4 μM, 1:1 dilutions) were prepared in 1× Folding Buffer with 4% (w/v) bovine serum albumin (BSA) with constant DMSO concentration (2% v/v). The compound solutions (10 μL) were added to a well of non-binding 384-well plate (Corning). An equal volume of folded RNA was adding to each well with a final concentration of 50 nM. The samples were incubated at room temperature for 30 min, and then fluorescence polarization was measured with a Molecular Devices SpectraMax M5 plate reader with an excitation wavelength of 640 nm and an emission wavelength of 680 nm.

MDA-MB-231 cells = assay: Invasion assay; format: cell-based, human; details: 10 μM, 48 h
Description: Invasion Assay. MDA-MB-231 cells were seeded in […] and treated with compound or transfected by ASO for 48 h as described in Cell Culture. After treatment for 48 h, the medium was replaced with fresh medium that contains same concentration of compound but lacking FBS for 8 h (serum starvation). ThinCert (GBO) 24-well inserts with 8 μm pores were coated with 100 μL of 0.5 mg/mL Matrigel (Fisher Scientific: CB40234) per well, and then cells were added into the insert (50,000 cells per well). Fresh growth medium with FBS was added to a 24-well plate (600 μL each well), and the inserts containing cells were placed on the top, allowing medium to cover the bottom of the insert. After 16 h, all medium was removed, and cells were washed by 1×DPBS twice. Cells were then fixed with 3% (w/v) paraformaldehyde (PFA) in 1×DPBS at room temperature for 30 min, followed by staining with Crystal Violet (10 mg/mL; 4:1H2O:MeOH) at room temperature for 20 min. A cotton swab was used to gently remove non-invasive cells on sitting on top of the Matrigel. The inserts were then imaged under a regular optical microscope (3 views per well), and the number of invasive cells were counted manually.

[2] = tested on: mutant RNA lacking U-bulge (fully paired RNA); assay: In vitro binding by fluorescence polarization, Cy5-labeled mutant RNA
Description: as §2

| Kd [1] [µM] | Compound | effect on QSOX-1b levels (QSOX-1b) | effect on SQSTM1 protein levels (SQSTM1 protein) | reduction of the number of invasive MDA-MB-231 cells (MDA-MB-231 cells) [%] | binding to fully paired RNA (U bulge converted to AU base pair) [2] |
| --- | --- | --- | --- | --- | --- |
| 11 ± 5 | CCOC(=O)C1=C(Nc2ccccc2)S/C(=C\c2ccc(OCCOCCOCCOCCNC(=O)CCC(=O)N(C)[C@H]3CC[C@@H](c4ccc(Cl)c(Cl)c4)c4ccccc43)c(O)c2)C1=O [Compound F1-RIBOTAC] | no effect | Neither | ~40 |  |
|  | C#CCCC1(CCC(=O)N(C)[C@H]2CC[C@@H](c3ccc(Cl)c(Cl)c3)c3ccccc32)N=N1 [Compound F1] |  |  |  | no detectable binding |

Source: US20250346943A1, “DEGRADER COMPOUNDS OF QSOX1 mRNA” (UNIVERSITY OF FLORIDA RESEARCH FOUNDATION, INCORPORATED, priority 2022, published 2025)
